Assay results taken from patent US20110177180A1, “HERBAL COMPOSITION AND METHOD FOR THE TREATMENT OF VIRAL INFECTION” (PIRAMAL LIFE SCIENCES LIMITED, priority 2008, published 2011).

Experiments:
[1] = tested on: HSV-2; experiment: Mouse vaginal model of HSV-2 infection (Example 14); format: in vivo, BALB/c mice; details: 75 mg/kg in PBS intravaginal, three times a day for 5 days; 5×10^3 pfu; 21 days
Method: The assay was done as reported in Antiviral Research, 2006, 69:77-85.
(§1) Female BALB/c mice of eight weeks age and body weight 18-20 g were used for intravaginal (IVAG) challenge (vaginal inoculation) with the virus (using viral stock of step 2 of example 10). Five days prior to the IVAG challenge, mice were injected subcutaneously (SC) with 2 mg of progesterone (Depo-Provera®; Pfizer, Belgium) in the upper back, using a 29-gauge needle. On the day of challenge, mice were anesthetized with Ketamine (150 mg/kg) and Xylazine (10 mg/kg) by intraperitoneal injection. Mice were inoculated intravaginally with 5×10^3 pfu of the virus using a micropipette in a total volume of 20 μL DMEM. […] Each group had ten animals. Animals were treated three times a day with the treatment intervals of 4 hours for 5 days. 20 μL of the above samples were injected into the vaginal vault using micropipette.
The animals were assessed daily for survival and extravaginal disease signs through 21 days of post inoculation (PI). […]

[2] = tested on: HSV-2; experiment: CPE inhibition assay - crystal violet staining method; format: cell-based; details: Human alphaherpesvirus 2; 25 μg/mL; Vero cells, HSV-2 100 TCID50, 48 hours
Method: The assay was designed to detect agents (in this case, the extracts) acting at any stage of the virus reproductive cycle. The assay was done as reported in Indian J. Med. Res., 2004, 120:24-29.
Vero cells (obtained in step 1 of Example 10) were propagated at a density of 1×10^4 cells/well in 96 well plate and incubated at 37° C. in a CO2 incubator for 24 hours to form a monolayer. […] Appropriate controls were included such as Vero cells alone (cell control), Vero cells with virus (virus control) and Vero cells with virus and the standard compound acyclovir. Acyclovir was checked at the following concentrations (DMSO stock of 20 mg/mL of acyclovir was diluted to 100 μg/mL with DMEM containing 2% FBS): 25 μg/mL, 3.125 μg/mL, 1.56 μg/mL and 0.78 μg/mL and 0.39 μg/mL. After one hour, cells were infected with a multiplicity of infection (moi) of 100 TCID50 of viral dose per well using viral stock obtained in step 2 of Example 10. The infected cells were incubated with maintenance medium (DMEM with 2% FBS) for another 48 hours. […] The staining solution was aspirated out and the plates rinsed using distilled water until all excess stain was washed away. The plates were allowed to dry for 24 hours. CPE was evaluated visually, after staining the plaques, and microscopically and graded according to the percentage of CPE inhibition as compared to controls. […]

[3] = tested on: HSV-2; experiment: Mouse vaginal model of HSV-2 infection (Example 15); format: in vivo, BALB/c mice; details: 225mg/kg
Method: as §1
The animals were assessed daily for survival and extravaginal disease signs through 21 days of post inoculation (PI). The severity of the viral disease (extravaginal signs of disease) was quantified using a well-established lesion score scale, also known as five-point scale as follows: • 0: no apparent infection; • 1: few isolated papules and slight redness of extravaginal tissue; • 2: few isolated papules, ulcers, and/or eschar and/or swelling and redness of extravaginal tissue; • 3: multiple fused ulcers/eschars, moderate swelling and redness of extravaginal tissue with extension to surrounding tissue; • 4: ulceration with severe redness and swelling of extravaginal tissue with extension to surrounding tissue, rear leg paralysis; and • 5: severe ulceration of extravaginal tissue with extension to surrounding tissue, weight loss, rear leg paralysis and death.
The assay was performed as mentioned in Example 14 with modifications as mentioned below: • (i) Mice were inoculated intravaginally with 2×10^4 pfu of the virus instead of 5×10^3 pfu in Example 14. • (ii) Evaluation was done by topical application of the formulations (Formulation I, Formulation II and Formulation III) instead of injection of extracts into vaginal vault of the animals in Example 14. • (iii) One more group of animals was studied: “infection control group” in which the mice were inoculated with the virus but were not treated.
Extract of Example 1 (dissolved in PBS) was injected into the vaginal vault using micropipette. Formulation I, Formulation II and Formulation III were applied topically (25 mg) thrice daily for a 5 day period. 25 mg of Formulation IB, IIB or IIIB correspond to 375 mg/kg dose; 25 mg of Formulation IC, IIC or IIIC correspond to 750 mg/kg dose and 25 mg of Formulation ID, IID and IIID correspond to 1500 mg/kg dose evaluated in the animals.

[4] = positive control in evaluation of Formulation I
[5] = positive control in evaluation of Formulation II
[6] = positive control in evaluation of Formulation III
[7] = positive control in evaluation of extract of Example 1

## Nc1nc2c(ncn2COCCO)c(=O)[nH]1 [Acyclovir]
[1]
  deaths during the experiment: None of the mice died during the experiment
  signs of extravaginal disease: None of the mice showed signs of extravaginal disease
[2]
  inhibition at 25 µg/mL: 76 to 100%
[3]; [4]
  extravaginal disease: None of the mice showed extravaginal disease
  survival rate: 100%
[3]; [5]
  course of extravaginal disease: continued till day 21
  day on which extravaginal disease appeared: 18 days
  survival rate: 100%
[3]; [6]
  extravaginal disease: None of the mice showed extravaginal disease
  survival rate: 100%
[3]; [7]
  extravaginal disease: None of the mice showed extravaginal disease
  survival rate: 100%
